According to ChEMBL document CHEMBL3817755, “Design, synthesis and biological evaluation of indazolepyrimidine based derivatives as anticancer agents with anti-angiogenic and antiproliferative activities” (Medchemcomm, 2016):

Key:
[1] = tested on: ACHN; assay: Growth inhibition of human ACHN cells at 10 uM after 48 hrs by SRB assay; format: functional; conditions: read-out: GI
[2] = Growth inhibition of human UO31 cells at 10 uM after 48 hrs by SRB assay; format: functional; conditions: UO-31, 48 h, read-out: GI
[3] = Growth inhibition of human RPMI8226 cells at 10 uM after 48 hrs by SRB assay; format: functional; conditions: RPMI-8226, 48 h, read-out: GI
[4] = Growth inhibition of human UACC257 cells at 10 uM after 48 hrs by SRB assay; format: functional; conditions: UACC-257, 48 h, read-out: GI
[5] = Growth inhibition of human OVCAR8 cells at 10 uM after 48 hrs by SRB assay; format: functional; conditions: OVCAR-8, 48 h, read-out: GI
[6] = Growth inhibition of human SF268 cells at 10 uM after 48 hrs by SRB assay; format: functional; conditions: SF-268, 48 h, read-out: GI
[7] = Growth inhibition of human SW620 cells at 10 uM after 48 hrs by SRB assay; format: functional; conditions: SW-620, 48 h, read-out: GI
[8] = Growth inhibition of human SNB75 cells at 10 uM after 48 hrs by SRB assay; format: functional; conditions: SNB-75, 48 h, read-out: GI
[9] = Growth inhibition of human SF539 cells at 10 uM after 48 hrs by SRB assay; format: functional; conditions: SF-539, 48 h, read-out: GI
[10] = Growth inhibition of human MOLT4 cells at 10 uM after 48 hrs by SRB assay; format: functional; conditions: MOLT-4, 48 h, read-out: GI
[11] = Growth inhibition of human HCT15 cells at 10 uM after 48 hrs by SRB assay; format: functional; conditions: HCT-15, 48 h, read-out: GI
[12] = tested on: A498; assay: Growth inhibition of human A498 cells at 10 uM after 48 hrs by SRB assay; format: functional; conditions: A498, 48 h, read-out: GI
[13] = tested on: NCI-H23; assay: Growth inhibition of human NCI-H23 cells at 10 uM after 48 hrs by SRB assay; format: functional; conditions: NCI-H23, 48 h, read-out: GI
[14] = Growth inhibition of human HOP62 cells at 10 uM after 48 hrs by SRB assay; format: functional; conditions: HOP-62, 48 h, read-out: GI
[15] = tested on: SK-MEL-28; assay: Growth inhibition of human SK-MEL-28 cells at 10 uM after 48 hrs by SRB assay; format: functional; conditions: SK-MEL-28, 48 h, read-out: GI
[16] = tested on: NCI-H226; assay: Growth inhibition of human NCI-H226 cells at 10 uM after 48 hrs by SRB assay; format: functional; conditions: NCI-H226, 48 h, read-out: GI
[17] = Growth inhibition of human HCC2998 cells at 10 uM after 48 hrs by SRB assay; format: functional; conditions: HCC 2998, 48 h, read-out: GI
[18] = Growth inhibition of human HOP62 cells after 48 hrs by SRB assay; format: functional; conditions: HOP-62, 48 h
[19] = tested on: SK-MEL-2; assay: Growth inhibition of human SK-MEL-2 cells after 48 hrs by SRB assay; format: functional; conditions: SK-MEL-2, 48 h
[20] = tested on: U-251; assay: Growth inhibition of human U251 cells after 48 hrs by SRB assay; format: functional; conditions: U-251, 48 h
[21] = Growth inhibition of human Hs 578T cells after 48 hrs by SRB assay; format: functional
[22] = tested on: NCI-H226; assay: Growth inhibition of human NCI-H226 cells after 48 hrs by SRB assay; format: functional; conditions: NCI-H226, 48 h
[23] = tested on: A498; assay: Growth inhibition of human A498 cells after 48 hrs by SRB assay; format: functional; conditions: A498, 48 h
[24] = tested on: T47D; assay: Growth inhibition of human T47D cells after 48 hrs by SRB assay; format: functional
[25] = Growth inhibition of human HCT15 cells after 48 hrs by SRB assay; format: functional; conditions: HCT-15, 48 h
[26] = tested on: SK-MEL-5; assay: Growth inhibition of human SK-MEL-5 cells after 48 hrs by SRB assay; format: functional; conditions: SK-MEL-5, 48 h
[27] = Growth inhibition of human HOP92 cells after 48 hrs by SRB assay; format: functional; conditions: HOP-92, 48 h
[28] = Growth inhibition of human PC3 cells after 48 hrs by SRB assay; format: functional; conditions: PC-3, 48 h
[29] = Growth inhibition of human SF295 cells after 48 hrs by SRB assay; format: functional; conditions: SF-295, 48 h
[30] = tested on: MCF7; assay: Growth inhibition of human MCF7 cells after 48 hrs by SRB assay; format: functional; conditions: MCF7, 48 h
[31] = tested on: M14; assay: Growth inhibition of human M14 cells after 48 hrs by SRB assay; format: functional; conditions: M14, 48 h
[32] = molecular target: Vascular endothelial growth factor receptor 2 (Homo sapiens, UniProt P35968); assay: Inhibition of VEGFR-2 (unknown origin) after 40 mins by Kinase-GloPlus luminescence assay
[33] = Growth inhibition of human BT549 cells after 48 hrs by SRB assay; format: functional; conditions: BT-549, 48 h
[34] = Growth inhibition of human Caki1 cells after 48 hrs by SRB assay; format: functional; conditions: CAKI-1, 48 h
[35] = Growth inhibition of human TK10 cells after 48 hrs by SRB assay; format: functional; conditions: TK-10, 48 h
[36] = tested on: HT-29; assay: Growth inhibition of human HT-29 cells after 48 hrs by SRB assay; format: functional; conditions: HT-29, 48 h
[37] = Growth inhibition of human HL-60(TB) cells after 48 hrs by SRB assay; format: functional; conditions: HL-60, 48 h
[38] = Growth inhibition of human LOXIMVI cells after 48 hrs by SRB assay; format: functional; conditions: LOX IMVI
[39] = read-out: LC50 (the source's name)

Sequence of Vascular endothelial growth factor receptor 2 (P35968 whole entry): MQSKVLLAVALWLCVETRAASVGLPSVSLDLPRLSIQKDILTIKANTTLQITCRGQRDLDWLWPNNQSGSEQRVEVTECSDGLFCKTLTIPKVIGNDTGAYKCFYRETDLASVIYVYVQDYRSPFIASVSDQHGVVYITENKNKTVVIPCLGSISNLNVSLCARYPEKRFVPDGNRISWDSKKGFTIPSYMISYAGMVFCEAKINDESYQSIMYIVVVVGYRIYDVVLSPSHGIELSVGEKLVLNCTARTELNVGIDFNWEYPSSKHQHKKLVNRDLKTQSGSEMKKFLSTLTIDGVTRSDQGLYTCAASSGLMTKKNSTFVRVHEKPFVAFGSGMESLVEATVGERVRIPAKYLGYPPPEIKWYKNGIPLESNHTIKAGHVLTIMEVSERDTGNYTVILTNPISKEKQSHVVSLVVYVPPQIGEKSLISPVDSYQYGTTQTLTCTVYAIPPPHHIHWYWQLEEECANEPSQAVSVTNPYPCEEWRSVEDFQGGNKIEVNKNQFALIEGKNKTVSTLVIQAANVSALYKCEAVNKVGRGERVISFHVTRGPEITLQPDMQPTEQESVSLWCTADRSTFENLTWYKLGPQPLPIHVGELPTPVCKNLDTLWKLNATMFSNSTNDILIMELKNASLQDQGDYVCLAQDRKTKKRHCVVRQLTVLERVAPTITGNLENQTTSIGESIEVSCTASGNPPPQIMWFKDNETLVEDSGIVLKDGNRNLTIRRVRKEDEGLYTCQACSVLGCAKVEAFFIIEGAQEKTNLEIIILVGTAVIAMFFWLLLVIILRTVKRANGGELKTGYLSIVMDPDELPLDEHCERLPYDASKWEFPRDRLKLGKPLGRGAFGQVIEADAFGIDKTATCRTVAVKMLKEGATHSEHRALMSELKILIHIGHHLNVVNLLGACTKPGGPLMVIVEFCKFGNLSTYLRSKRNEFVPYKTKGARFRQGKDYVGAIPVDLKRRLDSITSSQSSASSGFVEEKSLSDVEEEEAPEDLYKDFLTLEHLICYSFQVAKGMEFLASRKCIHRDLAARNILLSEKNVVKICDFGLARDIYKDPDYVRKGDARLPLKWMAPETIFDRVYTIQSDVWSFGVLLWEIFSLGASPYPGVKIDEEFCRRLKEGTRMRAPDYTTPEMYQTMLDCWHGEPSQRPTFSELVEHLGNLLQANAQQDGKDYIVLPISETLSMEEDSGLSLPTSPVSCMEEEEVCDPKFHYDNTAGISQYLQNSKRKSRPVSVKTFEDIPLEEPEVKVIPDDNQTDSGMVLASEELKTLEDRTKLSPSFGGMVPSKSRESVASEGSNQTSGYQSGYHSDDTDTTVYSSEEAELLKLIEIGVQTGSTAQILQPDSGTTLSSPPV

## NS(=O)(=O)c1ccc(Nc2nccc(Nc3ccc4[nH]ncc4c3)n2)cc1
[1]
  inhibition of growth at 10 µM: -7%
[2]
  inhibition of growth at 10 µM: 18%
[3]
  inhibition of growth at 10 µM: 16%
[4]
  inhibition of growth at 10 µM: 14%
[5]
  inhibition of growth at 10 µM: 18%
[6]
  inhibition of growth at 10 µM: 12%
[7]
  inhibition of growth at 10 µM: -11%
[8]
  inhibition of growth at 10 µM: 22%
[9]
  inhibition of growth at 10 µM: -3%
[10]
  inhibition of growth at 10 µM: 12%
[11]
  inhibition of growth at 10 µM: -6%
[12]
  inhibition of growth at 10 µM: 32%
[13]
  inhibition of growth at 10 µM: 14%
[14]
  inhibition of growth at 10 µM: 17%
[15]
  inhibition of growth at 10 µM: -18%
[16]
  inhibition of growth at 10 µM: 28%
[17]
  inhibition of growth at 10 µM: -18%

## COc1ccc(Nc2nccc(Nc3ccc4[nH]ncc4c3)n2)cc1
[1]
  inhibition of growth at 10 µM: 71%
[18]
  GI50: 2.27 µM
  LC50: 19.4 µM
  TGI: 5.76 µM
[2]
  inhibition of growth at 10 µM: 84%
[3]
  inhibition of growth at 10 µM: 97%
[19]
  GI50: 2.4 µM
  LC50: 29.8 µM
  TGI: 6.39 µM
[20]
  GI50: 3.61 µM
  TGI: 13.6 µM
[20]; [39]
  CC50: 36.9 µM
[21]
  GI50: 5.02 µM
  TGI: > 100 µM
[21]; [39]
  CC50: > 100 µM
[4]
  inhibition of growth at 10 µM: 54%
[22]
  GI50: 2.3 µM
  TGI: 5.77 µM
[22]; [39]
  CC50: > 100 µM
[23]
  GI50: 4.62 µM
  TGI: 17.2 µM
[23]; [39]
  CC50: 41.4 µM
[5]
  inhibition of growth at 10 µM: 91%
[24]
  GI50: 1.77 µM
  LC50 (concentration killing 50% of cells): 97.8 µM
  TGI: 5.24 µM
[25]
  GI50: 1.9 µM
  LC50: 9.61 µM
  TGI: 4.28 µM
[6]
  inhibition of growth at 10 µM: 53%
[26]
  GI50: 2.01 µM
  TGI: 4.75 µM
[26]; [39]
  CC50: 13.1 µM
[7]
  inhibition of growth at 10 µM: 75%
[8]
  inhibition of growth at 10 µM: 34%
[27]
  GI50: 3.13 µM
  TGI: 12.9 µM
[27]; [39]
  CC50: 44.5 µM
[9]
  inhibition of growth at 10 µM: 31%
[28]
  GI50: 2.21 µM
  LC50: 50.4 µM
  TGI: 7.2 µM
[10]
  inhibition of growth at 10 µM: 99%
[11]
  inhibition of growth at 10 µM: 94%
[12]
  inhibition of growth at 10 µM: 63%
[29]
  GI50: 3.78 µM
  LC50 (concentration killing 50% of cells): 37.1 µM
  TGI: 13.8 µM
[13]
  inhibition of growth at 10 µM: 60%
[14]
  inhibition of growth at 10 µM: 51%
[15]
  inhibition of growth at 10 µM: 34%
[30]
  GI50: 2.05 µM
  TGI: 5.36 µM
[30]; [39]
  CC50: > 100 µM
[31]
  GI50: 2.39 µM
  TGI: 6.15 µM
[31]; [39]
  CC50: 21.2 µM
[32]
  IC50: 0.117 µM
[16]
  inhibition of growth at 10 µM: 72%
[33]
  GI50: 3.22 µM
  TGI: 12.1 µM
[33]; [39]
  CC50: 34.8 µM
[34]
  GI50: 2.22 µM
  TGI: 14.9 µM
[34]; [39]
  CC50: 38.6 µM
[17]
  inhibition of growth at 10 µM: 37%
[35]
  GI50: 2.45 µM
  TGI: 9.55 µM
[35]; [39]
  CC50: 31 µM
[36]
  GI50: 2.36 µM
  TGI: 8.33 µM
[36]; [39]
  CC50: 39.7 µM
[37]
  GI50: 2.05 µM
  LC50: > 100 µM
  TGI: 4.67 µM
[38]
  GI50: 1.92 µM
  LC50: 7.8 µM
  TGI: 3.87 µM
